How the values were obtained:
[1] = molecular target: T1, 5-hydroxytryptamine receptor 2C (Homo sapiens, UniProt P28335); assay: DRUGMATRIX: Serotonin (5-Hydroxytryptamine) 5-HT2C radioligand binding (ligand: [3H] Mesulergine); type: cell membranes, CHO-K1, Membrane; conditions: Not Active = under 50% inhibition at 10 µM
T1 sequence (P28335 whole entry): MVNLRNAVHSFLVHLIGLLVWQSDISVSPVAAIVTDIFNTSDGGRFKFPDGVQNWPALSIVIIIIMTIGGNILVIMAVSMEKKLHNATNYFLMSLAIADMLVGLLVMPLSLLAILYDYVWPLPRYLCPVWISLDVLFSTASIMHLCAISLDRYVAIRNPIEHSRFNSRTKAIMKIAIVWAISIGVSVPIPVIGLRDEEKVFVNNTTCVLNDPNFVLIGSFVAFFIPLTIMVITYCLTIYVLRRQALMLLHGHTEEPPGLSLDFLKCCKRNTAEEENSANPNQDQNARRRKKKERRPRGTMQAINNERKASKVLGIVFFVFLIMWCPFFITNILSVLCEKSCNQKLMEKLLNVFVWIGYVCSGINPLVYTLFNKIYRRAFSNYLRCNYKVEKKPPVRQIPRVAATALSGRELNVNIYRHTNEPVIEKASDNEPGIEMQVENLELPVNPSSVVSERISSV

Substance-P receptor = Substance-P receptor (Homo sapiens, UniProt P25103); type: cell membranes, Membrane; conditions: cho; note: in other assays of this panel Not Active means under 50% inhibition at 10 µM
Chain of Substance-P receptor (P25103 whole entry): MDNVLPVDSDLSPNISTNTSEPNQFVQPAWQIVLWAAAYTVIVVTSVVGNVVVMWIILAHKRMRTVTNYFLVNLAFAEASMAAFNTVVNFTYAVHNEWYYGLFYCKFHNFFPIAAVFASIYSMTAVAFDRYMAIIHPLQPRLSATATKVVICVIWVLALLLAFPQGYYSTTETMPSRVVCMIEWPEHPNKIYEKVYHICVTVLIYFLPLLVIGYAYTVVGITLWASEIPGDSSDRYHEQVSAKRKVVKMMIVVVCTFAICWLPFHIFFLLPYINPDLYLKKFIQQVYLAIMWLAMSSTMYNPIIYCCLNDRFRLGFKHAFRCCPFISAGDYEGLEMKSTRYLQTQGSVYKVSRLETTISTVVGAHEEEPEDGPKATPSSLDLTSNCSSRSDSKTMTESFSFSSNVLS

[2] = molecular target: Vascular endothelial growth factor receptor 1 (Homo sapiens, UniProt P17948); type: cell-based; conditions: huvec; note: in other assays of this panel Not Active means under 50% inhibition at 10 µM
Chain of Vascular endothelial growth factor receptor 1 (P17948 whole entry): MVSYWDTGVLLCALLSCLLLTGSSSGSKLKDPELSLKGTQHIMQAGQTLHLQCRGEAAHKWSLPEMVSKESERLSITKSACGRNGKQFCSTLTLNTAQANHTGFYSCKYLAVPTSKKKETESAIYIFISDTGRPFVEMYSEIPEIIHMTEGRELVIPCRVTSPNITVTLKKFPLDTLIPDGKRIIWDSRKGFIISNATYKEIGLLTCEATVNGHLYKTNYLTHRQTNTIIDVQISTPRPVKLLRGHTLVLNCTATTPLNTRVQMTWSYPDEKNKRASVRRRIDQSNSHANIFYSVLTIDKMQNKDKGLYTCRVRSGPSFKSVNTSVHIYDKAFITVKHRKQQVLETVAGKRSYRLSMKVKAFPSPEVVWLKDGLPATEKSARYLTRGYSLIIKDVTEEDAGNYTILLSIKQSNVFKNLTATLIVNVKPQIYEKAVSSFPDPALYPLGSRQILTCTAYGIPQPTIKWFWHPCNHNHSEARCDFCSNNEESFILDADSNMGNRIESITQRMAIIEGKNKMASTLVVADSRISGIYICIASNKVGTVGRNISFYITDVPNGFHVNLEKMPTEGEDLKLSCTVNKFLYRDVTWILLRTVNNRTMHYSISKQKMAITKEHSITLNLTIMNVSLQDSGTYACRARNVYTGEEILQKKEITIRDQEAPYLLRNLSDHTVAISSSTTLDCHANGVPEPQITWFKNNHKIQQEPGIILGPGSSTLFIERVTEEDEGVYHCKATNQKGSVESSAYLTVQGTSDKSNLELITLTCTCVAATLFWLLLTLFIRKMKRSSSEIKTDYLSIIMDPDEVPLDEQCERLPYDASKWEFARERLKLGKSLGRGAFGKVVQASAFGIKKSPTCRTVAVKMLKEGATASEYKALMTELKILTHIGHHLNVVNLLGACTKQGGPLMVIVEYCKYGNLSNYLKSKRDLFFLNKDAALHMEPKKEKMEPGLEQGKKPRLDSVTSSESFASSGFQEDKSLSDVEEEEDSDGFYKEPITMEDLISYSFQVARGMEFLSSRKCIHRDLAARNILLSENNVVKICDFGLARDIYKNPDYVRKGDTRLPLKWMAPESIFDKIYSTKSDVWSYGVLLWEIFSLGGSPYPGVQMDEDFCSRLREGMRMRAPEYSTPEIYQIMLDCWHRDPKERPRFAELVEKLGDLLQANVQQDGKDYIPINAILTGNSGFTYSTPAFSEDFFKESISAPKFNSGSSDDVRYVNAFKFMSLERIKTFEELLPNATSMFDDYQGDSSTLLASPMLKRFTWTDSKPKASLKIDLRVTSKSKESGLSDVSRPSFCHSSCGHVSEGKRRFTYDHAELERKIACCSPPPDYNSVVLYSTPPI

Cannabinoid receptor 1 = Cannabinoid receptor 1 (Homo sapiens, UniProt P21554); type: cell membranes, Chem-1, Membrane; note: in other assays of this panel Not Active means under 50% inhibition at 10 µM
Chain of Cannabinoid receptor 1 (P21554 whole entry): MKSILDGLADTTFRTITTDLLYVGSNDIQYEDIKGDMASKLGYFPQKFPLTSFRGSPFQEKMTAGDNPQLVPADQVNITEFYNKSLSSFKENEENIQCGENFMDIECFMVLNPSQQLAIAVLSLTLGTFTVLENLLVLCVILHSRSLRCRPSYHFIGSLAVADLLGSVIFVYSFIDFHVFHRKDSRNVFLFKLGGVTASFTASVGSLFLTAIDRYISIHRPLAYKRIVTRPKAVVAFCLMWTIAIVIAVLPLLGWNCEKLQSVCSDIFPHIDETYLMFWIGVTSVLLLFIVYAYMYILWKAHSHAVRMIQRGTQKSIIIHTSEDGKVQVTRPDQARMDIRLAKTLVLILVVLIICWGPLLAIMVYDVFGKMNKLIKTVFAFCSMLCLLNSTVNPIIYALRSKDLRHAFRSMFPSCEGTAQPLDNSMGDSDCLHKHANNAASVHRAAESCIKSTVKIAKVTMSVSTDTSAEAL

[3] = DRUGMATRIX: Glutamate, Kainate radioligand binding (ligand: [3H] Kainic acid); type: cell membranes, Rattus norvegicus, Wistar, Brain, Membrane; conditions: Not Active = under 50% inhibition at 10 µM
[4] = molecular target: T2, 3-hydroxy-3-methylglutaryl-coenzyme A reductase (Homo sapiens, UniProt P04035); set-up: species or system Escherichia coli;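 note: enzyme inhibition assay of HMG-CoA reductase using radiolabeled [14C]HMG-CoA as substrate; in other assays of this panel Not Active means under 50% inhibition at 10 µM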
T2 sequence (P04035 whole entry): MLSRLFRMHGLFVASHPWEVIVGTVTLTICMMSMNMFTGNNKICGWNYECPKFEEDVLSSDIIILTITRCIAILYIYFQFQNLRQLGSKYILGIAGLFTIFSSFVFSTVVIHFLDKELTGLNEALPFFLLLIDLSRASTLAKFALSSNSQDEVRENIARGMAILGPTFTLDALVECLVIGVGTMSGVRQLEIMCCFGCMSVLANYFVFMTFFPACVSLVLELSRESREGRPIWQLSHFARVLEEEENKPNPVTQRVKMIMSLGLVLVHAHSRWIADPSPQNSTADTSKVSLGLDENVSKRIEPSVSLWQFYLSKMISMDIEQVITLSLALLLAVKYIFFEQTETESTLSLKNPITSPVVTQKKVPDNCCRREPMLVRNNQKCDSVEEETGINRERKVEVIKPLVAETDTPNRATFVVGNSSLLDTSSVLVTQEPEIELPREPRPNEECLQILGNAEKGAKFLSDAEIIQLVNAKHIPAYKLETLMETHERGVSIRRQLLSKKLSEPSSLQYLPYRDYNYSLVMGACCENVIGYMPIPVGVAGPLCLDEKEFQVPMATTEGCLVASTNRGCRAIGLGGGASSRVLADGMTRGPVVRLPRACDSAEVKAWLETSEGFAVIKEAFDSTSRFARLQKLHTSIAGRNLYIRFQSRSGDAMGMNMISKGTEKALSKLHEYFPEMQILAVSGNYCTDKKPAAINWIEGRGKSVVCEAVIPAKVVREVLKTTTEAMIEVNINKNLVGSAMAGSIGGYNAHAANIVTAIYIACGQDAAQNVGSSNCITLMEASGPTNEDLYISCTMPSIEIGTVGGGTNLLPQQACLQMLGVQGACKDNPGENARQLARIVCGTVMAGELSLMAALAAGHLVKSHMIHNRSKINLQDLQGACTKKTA

[5] = molecular target: T3, Neuropeptide Y receptor type 2 (Homo sapiens, UniProt P49146); type: cell membranes, Membrane; conditions: kan-ts; note: in other assays of this panel Not Active means under 50% inhibition at 10 µM
T3 sequence (P49146 whole entry): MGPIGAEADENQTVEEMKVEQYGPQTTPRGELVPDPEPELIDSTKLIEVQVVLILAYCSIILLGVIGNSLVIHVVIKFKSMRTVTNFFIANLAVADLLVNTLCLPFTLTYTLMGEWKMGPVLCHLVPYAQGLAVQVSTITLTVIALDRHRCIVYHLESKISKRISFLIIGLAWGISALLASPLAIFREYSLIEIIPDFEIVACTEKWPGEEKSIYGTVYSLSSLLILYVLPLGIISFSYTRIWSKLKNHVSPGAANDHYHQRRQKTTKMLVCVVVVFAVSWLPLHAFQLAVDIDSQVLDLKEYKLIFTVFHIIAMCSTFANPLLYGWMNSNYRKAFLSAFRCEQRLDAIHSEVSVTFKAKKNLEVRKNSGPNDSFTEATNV

[6] = molecular target: Mitogen-activated protein kinase 3 (Homo sapiens, UniProt P27361); assay: DRUGMATRIX: Protein Serine/Threonine Kinase, ERK1 enzyme inhibition (substrate: Myelin Basic Protein); set-up: species or system Escherichia coli; conditions: Not Active = under 50% inhibition at 10 µM
Chain of Mitogen-activated protein kinase 3 (P27361 whole entry): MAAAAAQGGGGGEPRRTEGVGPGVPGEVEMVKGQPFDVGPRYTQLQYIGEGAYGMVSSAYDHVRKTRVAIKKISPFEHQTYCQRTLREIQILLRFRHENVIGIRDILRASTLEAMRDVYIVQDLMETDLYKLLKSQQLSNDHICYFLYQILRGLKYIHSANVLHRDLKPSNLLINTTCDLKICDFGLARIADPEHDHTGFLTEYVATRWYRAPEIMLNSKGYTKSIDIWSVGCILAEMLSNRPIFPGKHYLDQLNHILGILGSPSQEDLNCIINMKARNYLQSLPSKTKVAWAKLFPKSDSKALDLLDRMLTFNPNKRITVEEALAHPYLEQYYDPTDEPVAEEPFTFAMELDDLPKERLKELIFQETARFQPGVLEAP

[7] = molecular target: 5-hydroxytryptamine receptor 1B (Rattus norvegicus, UniProt P28564); type: cell membranes, Wistar, Cerebral cortex, Membrane; conditions: for Ki: read-out: Ki
Chain of 5-hydroxytryptamine receptor 1B (P28564 whole entry): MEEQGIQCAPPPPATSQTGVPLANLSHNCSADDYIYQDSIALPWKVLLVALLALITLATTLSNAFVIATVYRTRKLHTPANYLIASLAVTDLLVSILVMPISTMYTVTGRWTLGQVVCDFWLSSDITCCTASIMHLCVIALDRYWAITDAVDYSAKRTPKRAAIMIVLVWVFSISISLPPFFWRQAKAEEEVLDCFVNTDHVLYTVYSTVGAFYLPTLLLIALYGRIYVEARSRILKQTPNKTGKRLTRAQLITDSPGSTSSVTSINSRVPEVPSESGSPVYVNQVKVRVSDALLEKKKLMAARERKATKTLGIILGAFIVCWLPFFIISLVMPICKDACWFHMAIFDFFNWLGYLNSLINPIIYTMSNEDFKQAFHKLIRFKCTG

Cytochrome P450 2A6 = molecular target: T4, Cytochrome P450 2A6 (Homo sapiens, UniProt P11509); conditions: bti-tn-5b1-4; note: in other assays of this panel Not Active means under 50% inhibition at 10 µM
T4 sequence (P11509 whole entry): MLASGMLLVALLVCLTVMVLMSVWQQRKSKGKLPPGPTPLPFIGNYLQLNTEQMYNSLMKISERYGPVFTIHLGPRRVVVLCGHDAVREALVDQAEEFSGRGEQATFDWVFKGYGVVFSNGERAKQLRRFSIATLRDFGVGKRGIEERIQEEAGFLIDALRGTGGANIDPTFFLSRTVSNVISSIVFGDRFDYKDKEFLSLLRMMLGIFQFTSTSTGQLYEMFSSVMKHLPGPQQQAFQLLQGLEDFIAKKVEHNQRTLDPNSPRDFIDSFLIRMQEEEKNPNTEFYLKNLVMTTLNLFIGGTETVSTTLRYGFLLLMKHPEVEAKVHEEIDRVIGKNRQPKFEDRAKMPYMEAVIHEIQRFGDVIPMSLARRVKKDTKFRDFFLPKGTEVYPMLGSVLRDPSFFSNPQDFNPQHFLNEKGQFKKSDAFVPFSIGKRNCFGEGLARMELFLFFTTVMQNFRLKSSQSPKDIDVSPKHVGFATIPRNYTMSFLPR

Cytochrome P450 2E1 = Cytochrome P450 2E1 (Homo sapiens, UniProt P05181); conditions: bti-tn-5b1-4; note: in other assays of this panel Not Active means under 50% inhibition at 10 µM
Chain of Cytochrome P450 2E1 (P05181 whole entry): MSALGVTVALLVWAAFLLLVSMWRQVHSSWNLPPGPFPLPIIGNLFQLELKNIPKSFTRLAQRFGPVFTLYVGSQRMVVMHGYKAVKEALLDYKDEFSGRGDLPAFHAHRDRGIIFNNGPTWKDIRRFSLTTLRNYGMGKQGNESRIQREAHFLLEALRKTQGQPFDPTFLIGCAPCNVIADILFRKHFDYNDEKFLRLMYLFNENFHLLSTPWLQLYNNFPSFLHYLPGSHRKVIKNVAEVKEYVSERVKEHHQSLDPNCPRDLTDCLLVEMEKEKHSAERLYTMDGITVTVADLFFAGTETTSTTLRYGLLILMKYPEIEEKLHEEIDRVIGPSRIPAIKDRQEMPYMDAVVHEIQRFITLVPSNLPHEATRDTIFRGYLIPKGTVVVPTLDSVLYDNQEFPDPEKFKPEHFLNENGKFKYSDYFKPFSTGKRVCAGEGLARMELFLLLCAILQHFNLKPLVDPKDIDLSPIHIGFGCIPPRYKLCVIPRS

Row | SMILES | IC50 ([1]; cho-k1) | IC50 (Substance-P receptor) | IC50 [2] | IC50 (Cannabinoid receptor 1; chem-1) | IC50 [3] | Ki [3] | IC50 [4] | IC50 [5] | IC50 [6] | IC50 [7] | IC50 (Cytochrome P450 2A6) | Ki (Cytochrome P450 2A6) | IC50 (Cytochrome P450 2E1) | Ki (Cytochrome P450 2E1) | IC50 ([1]; read-out: IC50) | Ki ([1]; read-out: Ki) | IC50 ([7]; read-out: IC50) | Ki [7] | IC50 (Cannabinoid receptor 1; read-out: IC50) | Ki (Cannabinoid receptor 1; read-out: Ki)
1 | CC1=C(CC(=O)O)c2cc(F)ccc2/C1=C\c1ccc([S+](C)[O-])cc1 (configuration not stated) | Not Active | Not Active | Not Active | Not Active | Not Active | Not Active | Not Active | Not Active | Not Active | Not Active | Not Active | Not Active | Not Active | Not Active | – | – | – | – | – | –
2 | N[C@H](CSC(=S)NCc1ccccc1)C(=O)O | Not Active | Not Active | Not Active | Not Active | Not Active | Not Active | Not Active | Not Active | Not Active | Not Active | Not Active | Not Active | Not Active | Not Active | – | – | – | – | – | –
3 | CC(=O)N[C@@H]1[C@H](Oc2c3cc4cc2Oc2ccc(cc2Cl)[C@@H](O[C@@H]2O[C@@H](CO)[C@@H](O)[C@H](O)[C@@H]2NC(C)=O)[C@@H]2NC(=O)[C@H](NC(=O)[C@@H]4NC(=O)[C@H]4NC(=O)[C@@H](Cc5ccc(c(Cl)c5)O3)NC(=O)[C@H](N)c3ccc(O)c(c3)Oc3cc(O)cc4c3)c3ccc(O)c(c3)-c3c(O[C@H]4O[C@H](CO)[C@@H](O)[C@@H](O)[C@@H]4O)cc(O)cc3[C@@H](C(=O)O)NC2=O)O[C@@H](CO)[C@@H](O)[C@@H]1O | Not Active | Not Active | Not Active | Not Active | Not Active | Not Active | Not Active | Not Active | Not Active | Not Active | Not Active | Not Active | Not Active | Not Active | – | – | – | – | – | –
4 | Clc1ccc2c(c1)C(N1CCNCC1)=Nc1ccccc1O2 [AMOXAPINE] | – | Not Active | Not Active | Not Active | – | – | Not Active | Not Active | Not Active | Not Active | Not Active | Not Active | Not Active | Not Active | – | – | – | – | – | –
5 | COc1cc2c(c(OC)c1OC)-c1ccc(OC)c(=O)cc1[C@@H](NC(C)=O)CC2 [COLCHICINE] | Not Active | Not Active | Not Active | Not Active | – | – | Not Active | Not Active | Not Active | Not Active | Not Active | Not Active | Not Active | Not Active | – | – | – | – | – | –
6 | CN1CCC(=C2c3ccccc3C=Cc3ccccc32)CC1 [CYPROHEPTADINE] | – | Not Active | Not Active | Not Active | – | – | Not Active | Not Active | Not Active | – | Not Active | Not Active | Not Active | Not Active | 2.44 nM | 1.28 nM | 2780 nM | 1260 nM | – | –
7 | CC/C(=C(/CC)c1ccc(O)cc1)c1ccc(O)cc1 [DIETHYLSTILBESTROL] | – | Not Active | Not Active | Not Active | – | – | Not Active | Not Active | Not Active | Not Active | Not Active | Not Active | Not Active | Not Active | – | – | – | – | – | –
8 | C=CCN1CC[C@]23c4c5ccc(O)c4O[C@H]2C(=O)CC[C@@]3(O)[C@H]1C5 [NALOXONE] | Not Active | Not Active | Not Active | Not Active | – | – | Not Active | Not Active | Not Active | Not Active | – | – | – | – | – | – | – | – | – | –
9 | COCCOC(=O)C1=C(C)NC(C)=C(C(=O)OC(C)C)C1c1cccc([N+](=O)[O-])c1 (configuration not stated) [NIMODIPINE] | Not Active | Not Active | Not Active | – | Not Active | Not Active | Not Active | Not Active | Not Active | Not Active | – | – | – | – | – | – | – | – | 1740 nM | 1370 nM
10 | CC(C)NCC(O)COc1cccc2ccccc12 (configuration not stated) [PROPRANOLOL] | – | Not Active | Not Active | Not Active | – | – | Not Active | Not Active | Not Active | Not Active | Not Active | Not Active | Not Active | Not Active | – | – | – | – | – | –
11 | O=C(c1ccc(OCCN2CCCCC2)cc1)c1c(-c2ccc(O)cc2)sc2cc(O)ccc12 [RALOXIFENE] | – | Not Active | Not Active | Not Active | Not Active | Not Active | Not Active | Not Active | Not Active | – | Not Active | Not Active | Not Active | Not Active | – | – | 1860 nM | 846 nM | – | –
12 | CC(C)c1nc(CN(C)C(=O)N[C@H](C(=O)N[C@@H](Cc2ccccc2)C[C@H](O)[C@H](Cc2ccccc2)NC(=O)OCc2cncs2)C(C)C)cs1 [RITONAVIR] | Not Active | Not Active | Not Active | Not Active | Not Active | Not Active | Not Active | Not Active | Not Active | Not Active | – | – | – | – | – | – | – | – | – | –
13 | CC(C)(C)c1ccc(C(O)CCCN2CCC(C(O)(c3ccccc3)c3ccccc3)CC2)cc1 (configuration not stated) [TERFENADINE] | – | Not Active | Not Active | Not Active | Not Active | Not Active | Not Active | Not Active | Not Active | Not Active | Not Active | Not Active | Not Active | Not Active | – | – | – | – | – | –

Reference: ChEMBL document CHEMBL1909046, “DrugMatrix in vitro pharmacology data”
